ChEMBL document CHEMBL4392850, “Cu-mediated synthesis of differentially substituted diazepines as AChE inhibitors; validation through molecular docking and Lipinski's filter to develop novel anti-neurodegenerative drugs” (Bioorg Med Chem Lett, 2019)
pIC50: −log10 of the molar value.

Experiments:
[1] = biological target: T1, Acetylcholinesterase (Homo sapiens, UniProt P22303); experiment: Inhibition of AChE in erythrocytes (unknown origin) pre-incubated for 20 mins before acetylthiocholine substrate addition and measured over 30 mins by DTNB dye based spectrophotometry; assay type: cell-based
[2] = biological target: T1, Acetylcholinesterase; experiment: Inhibition of AChE in erythrocytes (unknown origin) pre-incubated for 20 mins before acetylthiocholine substrate addition and measured over 30 mins by DTNB dye based spectrophotometry relative to untreated control; assay type: cell-based
[3] = Antioxidant activity assessed as DPPH radical scavenging activity incubated for 15 to 20 mins by UV-visible spectrometry relative to untreated control; assay type: functional
[4] = Antioxidant activity assessed as DPPH radical scavenging activity incubated for 15 to 20 mins by UV-visible spectrometry; assay type: functional

T1 sequence (P22303 whole entry): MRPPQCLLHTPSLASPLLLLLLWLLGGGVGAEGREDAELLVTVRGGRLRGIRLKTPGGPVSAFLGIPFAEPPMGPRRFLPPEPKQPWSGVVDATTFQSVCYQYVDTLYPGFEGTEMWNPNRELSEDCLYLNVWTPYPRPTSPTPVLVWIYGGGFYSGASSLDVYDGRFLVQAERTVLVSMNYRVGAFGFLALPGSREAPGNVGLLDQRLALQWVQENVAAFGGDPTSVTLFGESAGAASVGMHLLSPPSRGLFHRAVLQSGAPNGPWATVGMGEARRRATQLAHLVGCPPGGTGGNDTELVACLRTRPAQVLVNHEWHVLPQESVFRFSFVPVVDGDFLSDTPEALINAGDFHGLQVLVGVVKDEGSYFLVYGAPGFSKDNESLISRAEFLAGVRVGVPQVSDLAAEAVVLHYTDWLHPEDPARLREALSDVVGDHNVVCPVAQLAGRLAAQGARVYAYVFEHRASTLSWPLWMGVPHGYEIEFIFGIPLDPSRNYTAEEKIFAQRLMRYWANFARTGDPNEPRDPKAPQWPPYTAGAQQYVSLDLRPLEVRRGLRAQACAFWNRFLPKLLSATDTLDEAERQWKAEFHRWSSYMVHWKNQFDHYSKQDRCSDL

SMILES | inhibition [1] | pIC50 [1] | inhibition [2] [%] | inhibition [3] [%] | pIC50 [4]
c1ccc(-c2nnn3c2C2CCCN2Cc2cc4c(cc2-3)OCO4)cc1 (stereo unspecified) | Dose-dependent effect | – | – | – | –
Fc1ccc(-c2nnn3c2C2c4ccccc4CCN2Cc2ccccc2-3)cc1 (stereo unspecified) | Dose-dependent effect | – | – | – | –
Cn1c(=O)c2c(ncn2C)n(C)c1=O | Dose-dependent effect | – | – | – | –
c1ccc(-c2nnn3c2C2c4ccccc4CCN2Cc2ccccc2-3)cc1 (stereo unspecified) | Dose-dependent effect | – | – | – | –
Cc1ccc(-c2nnn3c2C2c4ccccc4CCN2Cc2ccccc2-3)cc1 (stereo unspecified) | Dose-dependent effect | – | – | – | –
Brc1ccc(-c2nnn3c2C2c4ccccc4CCN2Cc2ccccc2-3)cc1 (stereo unspecified) | Dose-dependent effect | 6.60 | < 95 | 96.1 | 7.06
O=C1O[C@H]([C@@H](O)CO)C(O)=C1O [ASCORBIC ACID] | – | – | – | 80.2 | 5.90
c1ccc(-c2nnn3c2C2c4ccccc4CCN2Cc2cc4c(cc2-3)OCO4)cc1 (stereo unspecified) | Dose-dependent effect | – | – | – | –
c1ccc(-c2nnn3c2C2CCCCN2Cc2cc4c(cc2-3)OCO4)cc1 (stereo unspecified) | Dose-dependent effect | – | – | 92.3 | 7.02
